# Patent EP1939186A1, “5-Fluorouracil derivatives and their use for the treatment of cancer” (Sulfidris S.r.l., priority 2006, dated 2008)
# Tests used:
# Format in all cases: cell-based
# [1] = test system: Cisplatin resistant human ovarian cancer cells; assay: Toxicity assay (printed MTD assay) on resistant cells; conditions: various concentrations (1-1000 µM) for 24, 48 or 72 hours
# Protocol: Cisplatin resistant human ovarian cancer cells were treated with compounds of example 1 and 4 in comparison with 5-FU at various concentrations (1-1000 µM) for 24, 48 or 72 hours. MTD assay was used for toxicity study.
# [2] = test system: colon tumour cells DLD 1; assay: MTT assay (cell viability by mitochondrial dehydrogenase) on colon tumour cells; conditions: in vitro, range of concentrations 1-100 µM
# Excerpt: (§1) The compound described in example 4 has been tested in vitro on colon tumour cells HCT 116 and DLD 1. MTT assay was used for toxicity study (spectrophotometric measurement of cell viability by mitochondrial dehydrogenase).
# [3] = test system: colon tumour cells HCT 116; assay: as above; conditions: in vitro, range of concentrations 1-100 µM
# Excerpt: as §1
SMILES,biological activity in comparison with 5-FU [1],inhibit growth of colon tumour cells [2],inhibit growth of colon tumour cells [3]
"CS(=O)(=O)SCCOC(=O)CNC(=O)n1cc(F)c(=O)[nH]c1=O [Example 4, 2-(methylsulfonylthio)ethyl 2-(5-fluoro-2,4-dioxo-1,2,3,4-tetrahydropyrimidine-1-carboxamido)acetate]",superior to 5-FU,potently inhibit growth,potently inhibit growth
"CS(=O)(=O)SCCC(=O)OCn1cc(F)c(=O)[nH]c1=O [Example 1, (5-fluoro-2,4-dioxo-3,4-dihydropyrimidin-1(2H)-yl)methyl 3-(methylsulfonylthio)propanoate]",superior to 5-FU,,
